Measurements reported in ChEMBL document CHEMBL4819151, “Synthesis, optimization, in vitro and in vivo study of bicyclic substituted amine as MenA inhibitor” (Bioorg Med Chem Lett, 2021).
In brackets after ≈: the same amount, converted by molar mass. Activity calls are given as the source filed them. No cut-off for these calls is given here.

Experiments:
Staphylococcus aureus [1] = assay: Antibacterial activity against methicillin-resistant Staphylococcus aureus USA300 assessed as bacterial growth inhibition in CAMH medium measured by two-fold serial microdilution method; format: functional
[2] = molecular target: T1, 1,4-dihydroxy-2-naphthoate octaprenyltransferase (Mycobacterium tuberculosis, UniProt P9WIP3); assay: Inhibition of Mycobacterium tuberculosis MenA
T1 sequence (P9WIP3 whole entry): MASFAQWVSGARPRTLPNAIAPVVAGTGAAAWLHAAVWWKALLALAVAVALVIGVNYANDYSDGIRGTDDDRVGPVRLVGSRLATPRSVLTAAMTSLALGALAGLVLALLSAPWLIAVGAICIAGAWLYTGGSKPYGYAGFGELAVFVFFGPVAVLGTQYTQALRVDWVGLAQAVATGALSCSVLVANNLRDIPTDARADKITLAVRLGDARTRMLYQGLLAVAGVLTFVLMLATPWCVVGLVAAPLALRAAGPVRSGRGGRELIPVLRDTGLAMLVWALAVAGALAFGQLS

Staphylococcus aureus [3] = assay: Antibacterial activity against methicillin-resistant Staphylococcus aureus USA300 assessed as bacterial growth inhibition measured by two-fold serial microdilution method; format: functional
Staphylococcus aureus [4] = assay: Antibacterial activity against methicillin-resistant Staphylococcus aureus USA300 infected in Caenorhabditis elegans N2 worms assessed as worms survival at 5 ug/ml measured after 4 days; format: functional; conditions: dose 5 µg/ml; time 4 day
Staphylococcus aureus [5] = assay: Antibacterial activity against methicillin-resistant Staphylococcus aureus USA300 infected in Caenorhabditis elegans N2 worms assessed as worms survival at 25 ug/ml measured after 4 days; format: functional; conditions: dose 25 µg/ml; time 4 day
[6] = test system: Mycobacterium tuberculosis; assay: Antitubercular activity against Mycobacterium tuberculosis H37Rv; format: functional
[7] = molecular target: T1, 1,4-dihydroxy-2-naphthoate octaprenyltransferase; assay: Competitive inhibition of Mycobacterium tuberculosis H37Rv membrane MenA using DHNA as a substrate in presence of [1-3H]FPP or [1-3H]GGPP; format: cell membranes
[8] = Drug uptake in Balb/cJ mouse lungs at 200 ug INH administered for 4 days and measured on day 5 by reverse-phase HPLC analysis; format: ADME, tissue-based, Lung; conditions: in vivo, 120 h, at 200 µg, time 5 day
[9] = Toxicity in Balb/cJ mouse assessed as effect on lung damage at 10 mg/kg, INH administered for 4 days and measured on day 5 by H and E staining microscopic analysis; format: organism-based; conditions: in vivo, inhaled_or_intranasal, 120 h, time 5 day
[10] = Toxicity in Balb/cJ mouse assessed as body weight loss at 200 ug INH administered for 4 days and observed on day 5; conditions: in vivo, inhaled_or_intranasal, 120 h, dose 200 µg, time 5 day
[11] = Toxicity in Balb/cJ mouse assessed as effect on lung inflammation at 10 mg/kg, INH administered for 4 days and measured on day 5 by H and E staining microscopic analysis; format: organism-based; conditions: in vivo, inhaled_or_intranasal, 120 h, time 5 day
[12] = Toxicity in Balb/cJ mouse assessed as drug tolerability at 200 ug INH administered for 4 days; conditions: in vivo, inhaled_or_intranasal, 96 h, at 200 µg, time 4 day
[13] = test system: Mycobacterium tuberculosis; assay: Antitubercular activity against Mycobacterium tuberculosis H37Ra assessed as bacterial growth inhibition in the presence of 7H10/OADC medium; format: functional
Staphylococcus aureus [14] = assay: Bactericidal activity against methicillin-resistant Staphylococcus aureus USA300 assessed as eradication in population size at 8 to 16 ug/ml measured after 2 hrs by time kill assay curve based analysis; format: functional, organism-based; conditions: dose 8-16 µg/ml
Staphylococcus aureus [15] = assay: Antibacterial activity against methicillin-resistant Staphylococcus aureus USA300 infected in Caenorhabditis elegans N2 worms assessed as worms killing at 5 ug/ml measured after 4 days; format: functional; conditions: dose 5 µg/ml; time 4 day
Staphylococcus aureus [16] = assay: Bactericidal activity against methicillin-resistant Staphylococcus aureus USA300 at 16 ug/ml measured for 48 hrs in presence of menaquinone, MK4 by time kill assay curve based analysis; format: functional; conditions: dose 16 µg/ml
Staphylococcus aureus [17] = assay: Bactericidal activity against methicillin-resistant Staphylococcus aureus USA300 assessed as log10 reduction in microbial growth at 8 ug/ml in presence of menaquinone, MK4 measured after 8 hrs by time kill assay curve based analysis; format: functional; conditions: dose 8 µg/ml
Staphylococcus aureus [18] = assay: Antibacterial activity against methicillin-resistant Staphylococcus aureus USA300 assessed as bacterial growth inhibition at 8 ug/ml incubated for 24 hrs in presence 100 ug/ml of menaquinone, MK4 measured by two-fold serial microdilution method; format: functional, organism-based; conditions: dose 8.0 µg/ml
Staphylococcus aureus [19] = assay: Antibacterial activity against methicillin-resistant Staphylococcus aureus USA300 infected in Caenorhabditis elegans N2 worms assessed as worms killing at 25 ug/ml measured after 4 days; format: functional; conditions: dose 25 µg/ml; time 4 day
Staphylococcus aureus [20] = assay: Antibacterial activity against methicillin-resistant Staphylococcus aureus USA300 assessed as bacterial growth inhibition at 8 ug/ml measured by two-fold serial microdilution method; format: functional, organism-based; conditions: dose 8.0 µg/ml

COc1ccc2ccc(OCCCCCCCCN3CCCCC3)cc2c1
Activity (Staphylococcus aureus [1]): 16 µg/mL | IC50 [2]: 13.5 µM

CC(C)=CCC/C(C)=C/CN1CCCCC1
MIC (Staphylococcus aureus [3]): 64 µg/mL (≈ 289 µM)

CC(C)=CCC/C(C)=C/CC/C(C)=C/CNC1CC1
MIC (Staphylococcus aureus [3]): 16 µg/mL (≈ 61.2 µM)

O=[N+]([O-])c1ccc(OCCCCCCCCOc2ccc([N+](=O)[O-])cc2)cc1
MIC (Staphylococcus aureus [3]): 64 µg/mL (≈ 165 µM)

CC(C)=CCC/C(C)=C/CNCCc1ccc(F)cc1
MIC (Staphylococcus aureus [3]): 32 µg/mL (≈ 116 µM)

Fc1ccc(CCNCCCOc2ccc3ccc(OCCCNCCc4ccc(F)cc4)cc3c2)cc1
Activity (Staphylococcus aureus [1]): 3 µg/mL | Activity (Staphylococcus aureus [4]): 71% | Activity (Staphylococcus aureus [5]): 78%

C=CCN(C)C/C=C(\C)CC/C=C(\C)CCC=C(C)C
MIC [6]: 6.1 µg/mL (≈ 22.1 µM) | IC50 [7]: 20 µM

C=CCN(C)CCCCCCCCOc1ccc2ccc(OC)cc2c1
Activity (Staphylococcus aureus [1]): 16 µg/mL | IC50 [2]: 16.9 µM | Drug uptake [8]: 32.4% | Activity [9]: Non-Toxic | Activity [10]: Non-Toxic | Activity [11]: Non-Toxic | Activity [12]: 100% | Activity (Staphylococcus aureus [3]): Active

CC(C)=CCC/C(C)=C/CNC1CC1
MIC [13]: > 128 µg/mL | MIC (Staphylococcus aureus [3]): > 128 µg/mL

COc1ccc2ccc(OCCCOCC=C(C)C)cc2c1
MIC (Staphylococcus aureus [3]): > 256 µg/mL

COc1ccc2ccc(OCCCCCCCCOCC=C(C)C)cc2c1
MIC (Staphylococcus aureus [3]): > 256 µg/mL

CC(C)=CCC/C(C)=C/CC/C(C)=C/CNC1CCCC1
MIC (Staphylococcus aureus [3]): 16 µg/mL (≈ 55.3 µM)

O=[N+]([O-])c1ccc(OCCCCCCCCNCCc2ccc(F)cc2)cc1
MIC [13]: 16 µg/mL | MIC (Staphylococcus aureus [3]): 8 µg/mL (≈ 20.6 µM)

Fc1ccc(CCNCCCCCCCCNCCc2ccc(F)cc2)cc1
MIC [13]: 32 µg/mL | MIC (Staphylococcus aureus [3]): 16 µg/mL (≈ 41.2 µM)

CC(C)=CCC/C(C)=C/CNC1CCCC1
MIC [13]: 64 µg/mL | MIC (Staphylococcus aureus [3]): 128 µg/mL (≈ 578 µM)

CC(C)=CCC/C(C)=C/CC/C(C)=C/COC(=O)C(N)CC(=O)O (stereo not given)
MIC [6]: 12.5 µg/mL (≈ 37 µM) | IC50 [7]: 5.33 µM

Fc1ccc(CNCCCCCCCCNCc2ccc(F)cc2)cc1
MIC (Staphylococcus aureus [3]): 64 µg/mL (≈ 178 µM)

CC(C)=CCC/C(C)=C/CC/C(C)=C/CNCCc1ccc(F)cc1
Activity (Staphylococcus aureus [14]): Active | Activity (Staphylococcus aureus [15]): 83% | Activity (Staphylococcus aureus [16]): 100% | Activity (Staphylococcus aureus [17]): 3.5 log10CFU/ml | Activity (Staphylococcus aureus [18]): inactive | MIC [13]: 4 µg/mL | Activity (Staphylococcus aureus [19]): 100% | Activity (Staphylococcus aureus [20]): Active | MIC (Staphylococcus aureus [3]): 8 µg/mL (≈ 23.3 µM)

CC(C)=CCC/C(C)=C/CC/C(C)=C/CN1CCCCC1
MIC [13]: 8 µg/mL | MIC (Staphylococcus aureus [3]): 32 µg/mL (≈ 111 µM)

CC(=O)NC[C@H]1CN(c2ccc(N3CCOCC3)c(F)c2)C(=O)O1 [LINEZOLID]
MIC (Staphylococcus aureus [3]): 1 µg/mL (≈ 2.96 µM)
